What was measured:
Human HSP90 alpha = target: T1, Human HSP90 alpha (Homo sapiens, UniProt P07900); test: Measurement of HSP90 enzyme inhibitory activity (ATPase, malachite green); assay type: biochemical; settings: purified human HSP90 alpha, 1 mM ATP added, 37° C., two hours; read-out: Enzyme inhibitory activity (IC50, μM) Human HSP 90α
T1 construct: made in house; host or cells: E. coli BL21 codon plus (Stratagene)
Experimental: HSP90 enzyme inhibitory activity of the compounds of the present invention represented by formula (1) was measured by the following method. Among the 6-phenyl-N-phenyl-(1,3,5)triazin/(1,3)pyrimidin-2,4-diamine derivatives which are known LPAAT-β inhibitors, the following two compounds were used as comparative compounds, and their HSP90 enzyme inhibitory activities were measured similarly by the following method.
Introduction of pETHuHSP90a into E. coli (BL21 codon plus; Stratagene) was followed by O/N incubation in the presence of 0.1 mM IPTG, and the collected E. coli cells were disrupted by ultrasonication in a Lysis buffer (50 mM Tris-HCl (pH8.0), 10 mM MgCl2, 0.1% Triton X-100, Protease inhibitor cocktail tablets (Roche Diagnostics)). The cell lysate solution was centrifuged (10,000 rpm×30 minutes), and the supernatant obtained after centrifugation was used as a crude extract. The crude extract was fractionated using HisPrep FF column and HiTrap Q column (Amersham) to prepare a purified enzyme solution.
An enzyme solution for assays was prepared by dilution of the purified enzyme solution using an assay buffer (50 mM Tris HCl pH7.6, 20 mM KCl, 5 mM MgCl2).
10 μL each of various concentrations of the test substances (10% DMSO solution) was added to each well, and for the positive control wells, 10 μL of 10% DMSO was added. 10 μL of 10% DMSO was also added to the negative control well.
10 μL of 1 mM ATP was added to all of the wells, and the reaction was carried out at 37° C. for two hours.

HCT116 cells = test: Measurement of cell growth inhibition (Cell Counting Kit-8, four days); assay type: cell-based; settings: Homo sapiens, HCT-116, 96 h; HCT116 colon cancer cell line, four days culture; read-out: Cell growth inhibitory activity (IC50, μM) HCT116
Experimental: Cell growth inhibitory activities of the compounds of the present invention represented by formula (1) were measured by the following method.
Cells were maintained under conditions recommended by the provider of each cell line. Cells suspended in a medium were added to solutions containing various concentrations of the test substance, and the cells were cultured at 37° C. in a 5% CO2 incubator. Four days later, Cell Counting Kit-8 was added, and absorbance measurements were taken following the protocol included in the kit.

IC50 (Human HSP90 alpha) [µM]	IC50 (HCT116 cells) [µM]	SMILES
1.4	0.63	Nc1nc(SCCC(=O)NC[C@@H](O)CO)cc(-c2c(Cl)cc3c4c(cccc24)COC3)n1 [Example 320, 3-[2-amino-6-(5-chloro-1H,3H-benzo[de]isochromen-6-yl)-pyrimidin-4-ylsulfanyl]-N—((R)-2,3-dihydroxy-propyl)-propionamide]
1.8	0.16	NC(=O)CCCSc1cc(-c2c(Cl)cc3c4c(cccc24)COC3)nc(N)n1 [Example 324, 4-[2-amino-6-(5-chloro-1H,3H-benzo[de]isochromen-6-yl)-pyrimidin-4-ylsulfanyl]-butylamide]
2.1	0.2	CC(=O)NCCCSc1cc(-c2c(Cl)cc3c4c(cccc24)COC3)nc(N)n1 [Example 328, N-{3-[2-amino-6-(5-chloro-1H,3H-benzo[de]isochromen-6-yl)-pyrimidin-4-ylsulfanyl]-propyl}-acetamide]
1	0.31	CS(=O)(=O)NCCSc1cc(-c2c(Cl)cc3c4c(cccc24)COC3)nc(N)n1 [Example 329, N-{2-[2-amino-6-(5-chloro-1H,3H-benzo[de]isochromen-6-yl)-pyrimidin-4-ylsulfanyl]-ethyl}-methanesulfonamide]
1.2	2.1	Nc1nc(SCC2CNC(=O)O2)cc(-c2c(Cl)cc3c4c(cccc24)COC3)n1 (stereo not drawn) [Example 330, 5-[2-amino-6-(5-chloro-1H,3H-benzo[de]isochromen-6-yl)-pyrimidin-4-ylsulfanylmethyl]-oxazolidin-2-one]
1.5	1.9	Nc1nc(SCCNC(=O)CO)cc(-c2c(Cl)cc3c4c(cccc24)COC3)n1 [Example 331, N-{2-[2-amino-6-(5-chloro-1H,3H-benzo[de]isochromen-6-yl)-pyrimidin-4-ylsulfanyl]-ethyl}-2-hydroxy-acetamide]
3.3	0.12	Nc1nc(SCCCO)nc(-c2c(Cl)cc3c4c(cccc24)COC3)n1 [Example 340, 3-[4-amino-6-(5-chloro-1H,3H-benzo[de]isochromen-6-yl)-[1,3,5]triazin-2-ylsulfanyl]-propan-1-ol]
1.3	0.49	Nc1nc(SCCNC(=O)CO)nc(-c2c(Cl)cc3c4c(cccc24)COC3)n1 [Example 342, N-{2-[4-amino-6-(5-chloro-1H,3H-benzo[de]isochromen-6-yl)-[1,3,5]triazin-2-ylsulfanyl]-ethyl}-2-hydroxy-acetamide]

The next lines start with the molecule.

SMILES	IC50 (Human HSP90 alpha) [µM]	IC50 (HCT116 cells) [µM]
CC(CSc1cc(-c2c(Cl)cc3c4c(cccc24)COC3)nc(N)n1)C(N)=O (stereo not drawn) [Example 321, 3-[2-amino-6-(5-chloro-1H,3H-benzo[de]isochromen-6-yl)-pyrimidin-4-ylsulfanyl]-2-methyl-propionamide]	1.3	0.13
CNC(=O)C(C)CSc1cc(-c2c(Cl)cc3c4c(cccc24)COC3)nc(N)n1 (stereo not drawn) [Example 322, 3-[2-amino-6-(5-chloro-1H,3H-benzo[de]isochromen-6-yl)-pyrimidin-4-ylsulfanyl]-2,N-dimethyl-propionamide]	1.7	0.08
CC(CSc1cc(-c2c(Cl)cc3c4c(cccc24)COC3)nc(N)n1)C(=O)NCCO (stereo not drawn) [Example 323, 3-[2-amino-6-(5-chloro-1H,3H-benzo[de]isochromen-6-yl)-pyrimidin-4-ylsulfanyl]-N-(2-hydroxy-ethyl)-2-methyl-propionamide]	2.8	0.21
NC(=O)OCCSc1cc(-c2c(Cl)cc3c4c(cccc24)COC3)nc(N)n1 [Example 325, carbamic acid 2-[2-amino-6-(5-chloro-1H,3H-benzo[de]isochromen-6-yl)-pyrimidin-4-ylsulfanyl]-ethyl ester]	2.1	0.26
Nc1nc(SCCCO)cc(-c2c(Cl)cc3c4c(cccc24)COC3)n1 [Example 326, 3-[2-amino-6-(5-chloro-1H,3H-benzo[de]isochromen-6-yl)-pyrimidin-4-ylsulfanyl]-propan-1-ol]	2.1	0.52
CC(=O)NCCSc1cc(-c2c(Cl)cc3c4c(cccc24)COC3)nc(N)n1 [Example 327, N-{2-[2-amino-6-(5-chloro-1H,3H-benzo[de]isochromen-6-yl)-pyrimidin-4-ylsulfanyl]-ethyl}-acetamide]	2.1	0.93
NC(=O)NCCSc1cc(-c2c(Cl)cc3c4c(cccc24)COC3)nc(N)n1 [Example 332, {2-[2-amino-6-(5-chloro-1H,3H-benzo[de]isochromen-6-yl)-pyrimidin-4-ylsulfanyl]-ethyl}-urea]	2.2	0.47
N#CCNC(=O)CSc1nc(N)nc(-c2c(Cl)cc3c4c(cccc24)COC3)n1 [Example 333, 2-[4-amino-6-(5-chloro-1H,3H-benzo[de]isochromen-6-yl)-[1,3,5]triazin-2-ylsulfanyl]-N-cyano methyl-acetamide]	1.9	0.38
COCCNC(=O)CCSc1nc(N)nc(-c2c(Cl)cc3c4c(cccc24)COC3)n1 [Example 334, 3-[4-amino-6-(5-chloro-1H,3H-benzo[de]isochromen-6-yl)-[1,3,5]triazin-2-ylsulfanyl]-N-(2-methoxy-ethyl)-propionamide]	1.3	0.16
Nc1nc(SCCC(=O)NC[C@@H](O)CO)nc(-c2c(Cl)cc3c4c(cccc24)COC3)n1 [Example 335, 3-[4-amino-6-(5-chloro-1H,3H-benzo[de]isochromen-6-yl)-[1,3,5]triazin-2-ylsulfanyl]-N—((R)-2,3-dihydroxy-propyl)-propionamide]	1.2	0.49
CNC(=O)C(C)CSc1nc(N)nc(-c2c(Cl)cc3c4c(cccc24)COC3)n1 (stereo not drawn) [Example 337, 3-[4-amino-6-(5-chloro-1H,3H-benzo[de]isochromen-6-yl)-[1,3,5]triazin-2-ylsulfanyl]-2,N-dimethyl-propionamide]	1.5	0.018
CC(CSc1nc(N)nc(-c2c(Cl)cc3c4c(cccc24)COC3)n1)C(=O)NCCO (stereo not drawn) [Example 338, 3-[4-amino-6-(5-chloro-1H,3H-benzo[de]isochromen-6-yl)-[1,3,5]triazin-2-ylsulfanyl]-N-(2-hydroxy-ethyl)-2-methyl-propionamide]	1.5	0.12
NC(=O)CCCSc1nc(N)nc(-c2c(Cl)cc3c4c(cccc24)CSC3)n1 [Example 343, 4-[4-amino-6-(5-chloro-1H,3H-2-thia-phenalen-6-yl)-[1,3,5]triazin-2-ylsulfanyl]-butyramide]	1.8	0.015
